Laboratory results: patent US7563935B2, “Crystal forms of astaxanthin” (Phares Pharmaceutical Research N.V. et al., priority 2005, dated 2009)

What was measured:
Type in all cases: physicochemical
[1] = Solubility profile in dichloromethane; settings: 20° C.-25° C.
[2] = Solubility and rate of dissolution in organo-solvents or oils (comparison of crystal forms); settings: Form I vs Form II
[3] = Stability of the crystal in the dry form

SMILES | solubility profile in dichloromethane [1] | rate of dissolution in organo-solvents or oils relative to the other crystal form [2] | solubility in organo-solvents or oils relative to the other crystal form [2] | stability [3]
CC1=C(/C=C/C(C)=C/C=C/C(C)=C/C=C/C=C(C)/C=C/C=C(C)/C=C/C2=C(C)C(=O)C(O)CC2(C)C)C(C)(C)CC(O)C1=O (stereo not drawn) [Crystal Form I, 3,3′-dihydroxy-β,β-carotene-4,4′-dione] | 35 to 45 g/L | higher | higher solubility | stable in the dry form
CC1=C(/C=C/C(C)=C/C=C/C(C)=C/C=C/C=C(C)/C=C/C=C(C)/C=C/C2=C(C)C(=O)C(O)CC2(C)C)C(C)(C)CC(O)C1=O (stereo not drawn) [Crystal Form II, 3,3′-dihydroxy-β,β-carotene-4,4′-dione] | 10-30 g/l |  | lower solubility | 
